Marks after values point to notes of the source that are not given here.
Assay: Amylin or sibutramine by 28-day osmotic pump in high fat-fed rats (Example 1)
Type: in vivo, rat
Conditions: amylin 300 μg/kg/day or sibutramine 3 mg/kg/day, s.c. 28-day osmotic pump, high fat-fed rats, vs high fat-fed controls
Description: Low fat-fed rats (11% kcal from fat, D12329, Research Diets) were also implanted with pumps delivering vehicle. Food intake and body weight measurements were obtained weekly.
Rats were sacrificed by cardiac puncture under anesthesia. Triglyceride levels were measured on a COBAS Mira plasma analyzer (Roche), and leptin and insulin were assayed according to Linco Research rat RIA kits. Body composition was measured by chemical analysis (Covance Laboratories, Madison, Wis.).
All data are represented as mean±SEM. Analysis of variance was used to test for group differences.
The rats were fattened for 10 weeks prior to drug treatment. The high fat-fed rats were designated as obesity-prone (top 50% of weight gainers) or obesity-resistant (bottom 50%) based on the amount of weight gained through week 7.
In this study, an obesity-prone/obesity-resistant difference in drug interaction was found for protein weight in amylin-treated rats, and thus body composition parameters were measured separately in obesity-prone and obesity-resistant animals in each drug group (FIGS. 2A and 2B).

CC(C)CC(N(C)C)C1(c2ccc(Cl)cc2)CCC1 (centres unmarked) [SIBUTRAMINE, sibutramine, reference compound]
Body Weight (Week 1): 6%*
Caloric Intake (Week 1): 45%*
Body Weight (Week 2): 6%*
Caloric Intake (Week 2): 8%*
Body Weight (Week 3): 6%*
Caloric Intake (Week 3): −1%
Body Weight (Week 4): 3%
Caloric Intake (Week 4): −3%

Source: US7399744B2, “Methods for affecting body composition” (Amylin Pharmaceuticals, Inc., priority 2004, dated 2008)
